Results from patent EP3409671B1, “ISOTHIAZOLE DERIVATIVES AS GPR120 AGONISTS FOR THE TREATMENT OF TYPE II DIABETES” (Janssen Pharmaceutica NV, priority 2014, dated 2015).
pEC50: −log10 of the molar value.

What was measured:
[1] = biological target: T1, Human GPR120 short form (Homo sapiens, UniProt Q5NUL3); assay: Human GPR120 Calcium Flux Assay, Procedure Calcium B; type: cell-based; settings: HEK-293 cells expressing Human GPR120 short form, FLIPR, 4200 cells/well; read-out: GPR120 Ca^2+ Assay B EC50
T1 construct: expressed in transfected cells
T1 sequence (Q5NUL3 1-361): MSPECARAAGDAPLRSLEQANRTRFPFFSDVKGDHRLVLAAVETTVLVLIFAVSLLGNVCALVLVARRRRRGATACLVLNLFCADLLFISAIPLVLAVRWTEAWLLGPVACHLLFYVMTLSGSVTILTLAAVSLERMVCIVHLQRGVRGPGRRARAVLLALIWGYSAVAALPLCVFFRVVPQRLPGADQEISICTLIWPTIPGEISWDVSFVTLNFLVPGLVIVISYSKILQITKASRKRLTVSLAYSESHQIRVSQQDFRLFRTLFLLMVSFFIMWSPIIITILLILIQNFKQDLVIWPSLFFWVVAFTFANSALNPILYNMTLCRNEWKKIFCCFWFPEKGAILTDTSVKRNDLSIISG
Excerpt: This in vitro assay serves to assess test compound agonist activity against the short splice variant (SVS with Accession number NM_001195755.1 confirmed by sequencing data) of the GPR120 receptor. The Human Short splice variant #2 (NM_001195755.1) is missing an in-frame coding exon compared to variant 1 (the Human Long splice variant NM_181745.3), resulting in a shorter isoform (GPR120-S) lacking a 16 aa protein segment compared to isoform GPR120-L. The assay platform utilizes HEK-293 cells stably transfected to express the Human GPR120 short form. These cells are first loaded with the Ca^+2 sensitive dye, Fluo-4 NW. Upon stimulation, intracellular released Ca^+2 can bind to the dye and alter its fluorescence intensity. This increase in fluorescence signal, and thus the flux in intracellular [Ca^2+], is detected and quantitated by fluorescence imaging using a FLIPR reader. The effect of the agonist is measured as a function of concentration and used to calculate an EC50 based upon a response curve.
In this procedure 4200 cells/well were employed.
A Human GPR120 clone (Genbank accession number NM _001195755.1) was placed into the pcDNA3.1 mammalian expression vector carrying the neomycin resistance gene. A stable mammalian cell was generated by placing the above clone into a HEK293 background. Clonal cells responding to long chain fatty acids had expression levels of GPR120 confirmed by RT-qPCR. Human HEK-GPR120 cells were cultured in Dulbecco's Modified Eagle's Medium (DMEM)/F12 medium supplemented with 10% fetal bovine serum (FBS), 1% L-Glutamine and 1% penicillin/streptomycin and 0.5 mg/ml G-418. Cells were split 2 times a week to keep the cells in the log-phase growth.
In preparation for the assay, HEK cells stably transfected with Human GPR120 (2.5K cells per well in 25uL growth medium) were seeded into 384-well plates and then incubated overnight (37°C, 5% CO2). The next day, the media was changed to 20 µL assay buffer and the cell starved for 1h at 37°C. […]
The assay was performed on a FLIPR plate reader using the following parameters. Baseline was read for 10 seconds at 1 sec intervals. The program was set to transfer 10µL of ligand from compound plate to cell plate after baseline reading. […] After compound addition, each well was read for 300 sec, with measurements collected at 1 sec intervals.
The kinetic data from the FLIPR was based upon a 5 minute window for data collection. The fluorescence of each sample well was used for individual calculations of a normalized RFU value, which was defined as maximum response minus the minimum response. The normalized fluorescence reading (RFU) was calculated as follows: RFU = Fmax−Fmin [formula] […]

[2] = biological target: T2, short form of the GPR120 receptor (Homo sapiens, UniProt Q5NUL3); assay: Human GPR120 DiscoveRx PathHunter Beta-Arrestin assay, Procedure β-arrestin B; type: cell-based; settings: PathHunter CHO-K1 GPR120S β-Arrestin Cell Line, 5000 cells/well, read-out: hGPR120 β-arrestin B EC50
T2 construct: host or cells: PathHunter CHO-K1 GPR120S β-Arrestin Cell Line
T2 sequence (Q5NUL3 1-361): T1 sequence (Q5NUL3 1-361)
Excerpt: The binding of an agonist (medium/long chain fatty acids or small molecule agonists) to the G-protein-coupled receptor GPR120 activates phospholipase C, leading to release of intracellular Ca^+2 through the generation of inositol 1,4,5-trisphosphate (InsP3 or IP3). GPR120 activation can also trigger intracellular signaling via recruitment of Beta-Arrestin. In the present method, agonist-induced activation of the human GPR120 receptor is monitored through the use of PathHunter CHO-K1 GPR120 Beta-Arrestin Cell Line engineered by DiscoveRx, as detailed below. The cell lines are designed to co-express both the ProLink/Enzyme Donor (PK)-tagged GPCR and the Enzyme […] (EA)-tagged Beta-Arrestin fusion proteins. Upon GPR120 receptor stimulation / activation, the EA-tagged Beta-Arrestin portion is translocated to the tagged receptor, where the two enzyme fragments are brought within close proximity.
Under these conditions, these fragments can interact and form an active Beta-gal enzyme complex through Enzyme Fragment Complementation (EFC). This active Beta-gal complex can enzymatically hydrolyse the substrate to produce a detectable light signal; therefore, activation as a function of agonist concentration can be expressed as an EC50 value to determine relative compound activities. This in vitro assay therefore serves to assess compound agonist activity of the GPR120.
In Procedure β-arrestin B the cells used were PathHunter CHO-K1 GPR120S β-Arrestin Cell Line, expressing the short form of the GPR120 receptor (Accession #NM_181745), with 5000 cells/well. […]
The plates were read on an EnVision instrument, using Protocol name: Luminescence, Plate type: 384 Costar, Measurement height: 3 mm, Measurement time: 1s, Aperture: 384 Plate aperture. The %activity relative to the positive control was calculated using the following equation: %Activity = (Countcompound −Countvehicle)/(Countpostivite control −Countvehicle) × 100% [formula] […]

pEC50 [1] | pEC50 [2] | SMILES
6.56 | 6.28 | COc1cnc(-c2nsc(C(F)(F)F)c2COc2c(F)cc(CCC(=O)O)cc2F)s1 [Cpd 267, 3-(3,5-difluoro-4-((3-(5-methoxythiazol-2-yl)-5-(trifluoromethyl)isothiazol-4-yl)methoxy)phenyl)propanoic acid]
6.33 | 6.35 | COc1cnc(-c2nsc(C(F)(F)F)c2COc2ccc(CCC(=O)O)c(C)c2C)s1 [Cpd 268, 3-(4-((3-(5-methoxythiazol-2-yl)-5-(trifluoromethyl)isothiazol-4-yl)methoxy)-2,3-dimethylphenyl)propanoic acid]
6.71 | 6.17 | Cc1c(CCC(=O)O)ccc(OCc2c(-c3ncc(Cl)s3)nsc2C(F)(F)F)c1C [Cpd 269, 3-(4-((3-(5-chlorothiazol-2-yl)-5-(trifluoromethyl)isothiazol-4-yl)methoxy)-2,3-dimethylphenyl)propanoic acid]
